Measured values reported in ChEMBL document CHEMBL1201862, “PubChem BioAssay data set” (2004).
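1) Cells in 96-well plates. 2) Compound, 48 h, 5 concentrations. 3) Linear interpolation between surrounding doses. 4) Unreached endpoint = highest concentration. At the GI50, growth is halved.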 Active and inactive are the calls of the source. Cut-off read from the data, not from the text of the source: active = GI50 up to about 1.1 µM and inactive = higher.

Experiments:
Assay in all cases: NCI anticancer screen, dose series, 48 h
OVCAR-8 = tested on: OVCAR-8
HT-29 = tested on: HT-29
SN12C = tested on: SN12C
SK-MEL-5 = tested on: SK-MEL-5
MDA-MB-231 = tested on: MDA-MB-231
RPMI-8226 = tested on: RPMI-8226
SK-MEL-28 = tested on: SK-MEL-28
EKVX = tested on: EKVX
A498 = tested on: A498
NCI-H522 = tested on: NCI-H522
NCI-H460 = tested on: NCI-H460
BT-549 = tested on: BT-549
SR = tested on: SR
A549 = tested on: A549
HOP-92 = tested on: HOP-92
CAKI-1 = tested on: CAKI-1
MOLT-4 = tested on: MOLT-4
OVCAR-4 = tested on: OVCAR-4
KM12 = tested on: KM12
SF-268 = tested on: SF-268

SMILES | GI50 (OVCAR-8) | GI50 (HT-29) | GI50 (SN12C) | GI50 (SK-MEL-5) | GI50 (MDA-MB-231) | GI50 (RPMI-8226) | GI50 (SK-MEL-28) | GI50 (EKVX) | GI50 (A498) | GI50 (NCI-H522) | GI50 (NCI-H460) | GI50 (BT-549) | GI50 (SR) | GI50 (A549) | GI50 (HOP-92) | GI50 (CAKI-1) | GI50 (MOLT-4) | GI50 (OVCAR-4) | GI50 (KM12) | GI50 (SF-268)
O=C(O)[C@H]1NC[C@H]2C(Br)=NO[C@@H]12 | > 100 µM (inactive) | > 100 µM (inactive) | > 100 µM (inactive) | > 100 µM (inactive) | > 100 µM (inactive) | > 100 µM (inactive) | > 100 µM (inactive) | > 100 µM (inactive) | > 100 µM (inactive) | > 100 µM (inactive) | > 100 µM (inactive) | > 100 µM (inactive) | > 100 µM (inactive) | > 100 µM (inactive) | > 100 µM (inactive) | > 100 µM (inactive) | > 100 µM (inactive) | > 100 µM (inactive) | > 100 µM (inactive) | > 100 µM (inactive)
c1ccc(CNc2c3c(nc4ccccc24)CCC3)cc1 | 14.1 µM (inactive) | 5.52 µM (inactive) | 16.4 µM (inactive) | 11.7 µM (inactive) | 12.9 µM (inactive) | 10 µM (inactive) | 11.8 µM (inactive) | 12.1 µM (inactive) | 11.7 µM (inactive) | 15.7 µM (inactive) | 10.6 µM (inactive) | 17.9 µM (inactive) | 13.4 µM (inactive) | 15.1 µM (inactive) | 10.4 µM (inactive) | 15.3 µM (inactive) | 13.1 µM (inactive) | 15 µM (inactive) | 15.6 µM (inactive) | 21.7 µM (inactive)
COC12C=CC(CC1)C(C)(C)C2OS(C)(=O)=O (stereo not given) | > 100 µM (inactive) | > 100 µM (inactive) | > 100 µM (inactive) | > 100 µM (inactive) | > 100 µM (inactive) | > 100 µM (inactive) | > 100 µM (inactive) | > 100 µM (inactive) | 97.1 µM (inactive) | > 100 µM (inactive) | > 100 µM (inactive) | > 100 µM (inactive) | > 100 µM (inactive) | > 100 µM (inactive) | > 100 µM (inactive) | > 100 µM (inactive) | > 100 µM (inactive) | > 100 µM (inactive) | > 100 µM (inactive) | > 100 µM (inactive)
Cn1c2ccccc2n2c(N=O)c(-c3ccccc3)nc12 | > 100 µM (inactive) | 27.7 µM (inactive) | 69.2 µM (inactive) | 14.8 µM (inactive) | 53.6 µM (inactive) | 90.8 µM (inactive) | > 100 µM (inactive) | 19.4 µM (inactive) | > 100 µM (inactive) | 57.5 µM (inactive) | 16.4 µM (inactive) | 27.6 µM (inactive) | 55.1 µM (inactive) | 21.6 µM (inactive) | 84.3 µM (inactive) | 39.7 µM (inactive) | 52.7 µM (inactive) | 62.4 µM (inactive) | 15.2 µM (inactive) | > 100 µM (inactive)
CC[C@H]1C=CCC[C@@]2(C[C@@H]3CC[C@@H]4[C@H](C(=O)OCCCCCCCCCCCCCCCC(=O)N(CCCN)C[C@@H](O)CCN)[C@]5(CCC[C@@H](C)O5)NC(=[N+]34)N2)O1 | 0.451 µM (active) | 0.299 µM (active) | 0.766 µM (active) | 0.0407 µM (active) | 0.748 µM (active) | 0.0855 µM (active) | 1.27 µM (inactive) | 0.897 µM (active) | 0.625 µM (active) | 0.174 µM (active) | 0.443 µM (active) | 0.807 µM (active) | 0.0802 µM (active) | 0.282 µM (active) | 0.158 µM (active) | 0.0528 µM (active) | 0.0869 µM (active) | 0.474 µM (active) | 0.447 µM (active) | 0.544 µM (active)
COC(=O)C1=C(C)NC(C)=C(C(=O)OC)C1c1ccc(NO)cc1 | 10.2 µM (inactive) | 7.01 µM (inactive) | 18.7 µM (inactive) | 15.4 µM (inactive) | 12.8 µM (inactive) | 1.73 µM (inactive) | 17.5 µM (inactive) | 19.5 µM (inactive) | 29.8 µM (inactive) | 0.891 µM (active) | 14.9 µM (inactive) | 13.2 µM (inactive) | 2.47 µM (inactive) | 18.2 µM (inactive) | 2.68 µM (inactive) | 13 µM (inactive) | 2.86 µM (inactive) | 10.6 µM (inactive) | 17.1 µM (inactive) | 19 µM (inactive)
CC(C)OC(=O)C(NC(=O)C(CC(=O)OCc1ccccc1)NC(=O)OCc1ccccc1)NC(=O)C1C(C)(C)CCC1(C)C (stereo not given) | 2 µM (inactive) | 3.58 µM (inactive) | 3.84 µM (inactive) | 13.7 µM (inactive) | 2.1 µM (inactive) | 7.5 µM (inactive) | > 42 µM (inactive) | 3.85 µM (inactive) | 2.5 µM (inactive) | 11.6 µM (inactive) | 16.7 µM (inactive) | 17.4 µM (inactive) | 2.64 µM (inactive) | 2.22 µM (inactive) | 11 µM (inactive) | 9.98 µM (inactive) | 8.04 µM (inactive) | 3.55 µM (inactive) | 9.02 µM (inactive) | 15 µM (inactive)
CSc1nc(=O)c2nc(-c3cccs3)c(-c3cccs3)nc2n1C | 29.3 µM (inactive) | > 100 µM (inactive) | 43.6 µM (inactive) | > 100 µM (inactive) | 97.7 µM (inactive) | > 100 µM (inactive) | 43.1 µM (inactive) | 27.6 µM (inactive) | 32.3 µM (inactive) | 31 µM (inactive) | > 100 µM (inactive) | 34.5 µM (inactive) | > 100 µM (inactive) | 44.8 µM (inactive) | 28.8 µM (inactive) | 39.6 µM (inactive) | > 100 µM (inactive) | 30.7 µM (inactive) | > 100 µM (inactive) | 37.2 µM (inactive)
